Measurements: patent US20080242685A1, “Chemical Compounds” (Smithkline Beecham Corporation, priority 2005, published 2008)

What follows are molecules tested against T1, Recombinant human IKKβ (residues 1-737) (Homo sapiens, UniProt O14920) (assay: IKK2 Assay (TR-FRET)). Settings: IKK2 5 nM, GST-IκBα substrate 25 nM, ATP 1 μM, 30 minutes at room temperature, read-out: pIC50 against IKK2 (converted).
T1 construct: Recombinant human IKKβ (residues 1-737); GST (C); made in house
T1 sequence (O14920 1-737): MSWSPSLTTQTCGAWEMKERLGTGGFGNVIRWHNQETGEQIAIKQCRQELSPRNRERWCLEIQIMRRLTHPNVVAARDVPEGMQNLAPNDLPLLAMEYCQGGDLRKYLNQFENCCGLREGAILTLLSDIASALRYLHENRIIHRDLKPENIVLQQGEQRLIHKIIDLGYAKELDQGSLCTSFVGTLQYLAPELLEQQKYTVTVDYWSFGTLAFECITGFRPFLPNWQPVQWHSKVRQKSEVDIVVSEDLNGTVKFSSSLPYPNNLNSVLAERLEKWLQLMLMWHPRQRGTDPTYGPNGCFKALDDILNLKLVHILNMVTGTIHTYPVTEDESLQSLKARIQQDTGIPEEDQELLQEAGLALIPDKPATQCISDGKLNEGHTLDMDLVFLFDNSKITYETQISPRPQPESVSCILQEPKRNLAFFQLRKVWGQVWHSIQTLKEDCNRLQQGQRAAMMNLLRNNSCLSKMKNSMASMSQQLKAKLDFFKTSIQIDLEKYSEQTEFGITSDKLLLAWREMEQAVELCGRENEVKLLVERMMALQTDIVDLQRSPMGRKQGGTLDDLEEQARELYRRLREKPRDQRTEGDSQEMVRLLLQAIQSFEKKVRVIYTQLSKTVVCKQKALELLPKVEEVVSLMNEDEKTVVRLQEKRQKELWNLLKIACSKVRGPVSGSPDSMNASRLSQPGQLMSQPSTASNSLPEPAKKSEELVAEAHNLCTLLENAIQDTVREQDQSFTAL
Type: biochemical
Procedure: Recombinant human IKKβ (residues 1-737) was expressed in baculovirus as a C-terminal GST-tagged fusion protein, and its activity was assessed using a time-resolved fluorescence resonance energy transfer (TR-FRET) assay. Briefly, IKK2 (5 nM final) diluted in assay buffer (50 mM HEPES, 10 mM MgCl2, 1 mM CHAPS pH 7.4 with 1 mM DTT and 0.01% w/v BSA) was added to wells containing various concentrations of compound or DMSO vehicle (3% final). The reaction was initiated by the addition of GST-IκBα substrate (25 nM final)/ATP (1 μM final), in a total volume of 30 μl. The reaction was incubated for 30 minutes at room temperature, then terminated by the addition of 15 μl of 50 mM EDTA. Detection reagent (15 μl) in buffer (100 mM HEPES pH 7.4, 150 mM NaCl and 0.1% w/v BSA) containing antiphosphoserine-IκBα-32/36 monoclonal antibody 12C2 (Cell Signalling Technology, Beverly Mass., USA) labelled with W-1024 europium chelate (Wallac OY, Turku, Finland), and an APC-labelled anti-GST antibody (Prozyme, San Leandro, Calif., USA) was added and the reaction was further incubated for 60 minutes at room temperature. The degree of phosphorylation of GST-IκBα was measured using a Packard Discovery plate reader (Perkin-Elmer Life Sciences, Pangbourne, UK) as a ratio of specific 665 nm energy transfer signal to reference europium 620 nm signal.

IC50, ≤ 10 µM:
CC(C)(C)OC(=O)N1CCC(c2c[nH]c3c(C(N)=O)nc(-c4ccccc4)cc23)CC1 [Example 6, 1,1-dimethylethyl 4-[7-(aminocarbonyl)-5-phenyl-1H-pyrrolo[2,3-c]pyridin-3-yl]-1-piperidinecarboxylate]
CC(C)(C)OC(=O)N1CC=C(c2c[nH]c3c(C(N)=O)nc(-c4ccccc4)cc23)CC1 [Example 5, 1,1-dimethylethyl 4-[7-(aminocarbonyl)-5-phenyl-1H-pyrrolo[2,3-c]pyridin-3-yl]-3,6-dihydro-1(2H)-pyridinecarboxylate]
NC(=O)c1nc(-c2ccccc2)cc2cc[nH]c12 [Example 14, 5-phenyl-1H-pyrrolo[2,3-c]pyridine-7-carboxamide]
NC(=O)c1nc(-c2ccccc2)cc2c(C3CCNCC3)c[nH]c12 [Example 7, 5-phenyl-3-(4-piperidinyl)-1H-pyrrolo[2,3-c]pyridine-7-carboxamide]
CCS(=O)(=O)N1CCC(c2c[nH]c3c(C(N)=O)nc(-c4ccccc4)cc23)CC1 [Example 8, 3-[1-(ethylsulfonyl)-4-piperidinyl]-5-phenyl-1H-pyrrolo[2,3-c]pyridine-7-carboxamide]
